Source: ChEMBL document CHEMBL1149029, “New cycloartanol sulfates from the alga Tydemania expeditionis: inhibitors of the protein tyrosine kinase pp60v-src” (J Nat Prod, 1994)

Test: Inhibition of Rous sarcoma virus pp60v-src

IC50	SMILES
39 µM	CC(C)=CC(=O)C[C@@H](C)[C@H]1CC[C@@]2(C)[C@@H]3CC[C@H]4[C@](C)(COS(=O)(=O)O)[C@@H](OS(=O)(=O)O)CC[C@@]45C[C@@]35CC[C@]12C
100 µM	CC(C)CC(O)C[C@@H](C)[C@H]1CC[C@@]2(C)[C@@H]3CC[C@H]4[C@](C)(COS(=O)(=O)O)[C@@H](OS(=O)(=O)O)CC[C@@]45C[C@@]35CC[C@]12C (stereo partly drawn)
32 µM	CC(C)CC(=O)C[C@@H](C)[C@H]1CC[C@@]2(C)[C@@H]3CC[C@H]4[C@](C)(COS(=O)(=O)O)[C@@H](OS(=O)(=O)O)CC[C@@]45C[C@@]35CC[C@]12C
